Source: patent US20110124021A1, “PHOS[…] ACID SYNTHASE AND CANCER” (priority 2007, published 2011)

Experiments:
Type in all cases: cell-based, human
[1] = test system: FAS phosphorylation in PPC-1 cell line; assay: Effect of okadaic acid on FAS phosphorylation in PPC-1 cells (FIG. 7A); details: brief treatment with 100 nM okadaic acid; PPC-1 prostate cancer cell line
Description: (§1) The relationship between FAS phosphorylation and cancer was investigated with a panel of the following human immortalized non-transformed cell lines: IMR-90 fetal lung, hPS human prostate and human cancer cell lines: HCT-116 colon, PPC-1 prostate, and SKBr3 breast. FAS enzyme levels (adjusted to total cellular protein) were quantitated by immunoblot and normalized to IMR-90. Both IMR-90 and hPS non-transformed cell lines had relatively low levels of FAS expression compared to the cancer cell lines, which ranged from 4.3 to 22 fold elevations compared to IMR-90 cells. The high level of FAS expression in SKBr3 cells is consistent with the observation that 28% of its cytosolic protein is FAS (Thompson et al., Biochem. Biophys Acta, 662: 125-130 (1981)).
(§2) Because the FAS expression levels in this panel of cells is consistent with observations made in vivo, the possibility of differential FAS phosphorylation in these cells was investigated. […] No immunoreactivity was detected with an anti-phosphotyrosine or an anti-phosphoserine antibody, although additional antibodies and FAS proteins were not tested. Additional human cancer cell lines, such as LnCAP, OVCAR-3, SKOV3 (ovary), RKO (colon), H460, LX7 (lung), CAPAN-1, and PANC-1 (pancreas) can also be assessed for differential FAS phosphorylation as described above. […]

total cellular FAS = assay: Effect of okadaic acid treatment on total cellular FAS (FIG. 7B); details: cell line not stated
Description: FIGS. 7A and 7B, illustrates that phosphorylated FAS increases with okadaic acid treatment (part A) while total FAS protein is reduced (part B).
The effect of okadaic acid, a protein phosphatase 2A inhibitor, in FAS phosphorylation was studied.

[2] = test system: FAS phosphorylation in HCT-116 cell line; assay: Effect of okadaic acid on FAS phosphorylation in HCT-116 cells (FIG. 7A); details: brief treatment with 100 nM okadaic acid; HCT-116 colon cancer cell line
Description: as §1, §2

C=C1[C@@H](O)[C@@H]2O[C@]3(CC[C@H](/C=C/[C@@H](C)[C@@H]4CC(C)=C[C@@]5(O[C@H](C[C@@](C)(O)C(=O)O)CC[C@H]5O)O4)O3)CC[C@H]2O[C@@H]1[C@@H](O)C[C@H](C)[C@H]1O[C@@]2(CCCCO2)CC[C@H]1C [okadaic acid]
ratio of phosphorylated FAS to total FAS [1]: increases substantially
total FAS protein (total cellular FAS): reduced
ratio of phosphorylated FAS to total FAS [2]: increases substantially
